Patent US7601716B2, “Pyridopyrazines and derivatives thereof as ALK and c-Met inhibitors” (Cephalon, Inc., priority 2006, dated 2009)
Where a name gives a salt, the structure may show the parent alone.

What was measured:
[1] = biological target: T1, c-Met (cytoplasmic domain) (Homo sapiens, UniProt P08581); assay: c-Met Kinase Assay (ELISA/TRF, PLC-γ substrate); format: biochemical; conditions: 3 μM ATP (Km level); read-out: c-Met Kinase Inhibition (IC50)
T1 construct: Reactions were initiated with 30 ng/mL c-Met (cytoplasmic domain, Invitrogen Corporation #PV3143); purchased Invitrogen Corporation PV3143
Procedure: Example compounds were tested for their ability to inhibit the kinase activity of baculovirus-expressed ALK using a modification of the ELISA protocol reported for trkA in Angeles, T. S. et al., Anal. Biochem. 1996, 236, 49-55, which is incorporated herein by reference in its entirety. Phosphorylation of the substrate, phospholipase C-gamma (PLC-γ) generated as a fusion protein with glutathione S-transferase (GST) as reported in Rotin, D. et al., EMBO J. 1992, 11, 559-567, which is incorporated herein by reference in its entirety, was detected with a europium-labeled anti-phosphotyrosine antibody and measured by time-resolved fluorescence (TRF). Briefly, each 96-well plate was coated with 100 μL/well of 10 μg/mL substrate (phospholipase C-γ) in Tris-buffered saline (TBS). […] The reaction was initiated by adding enzyme (30 ng/ml ALK) and was allowed to proceed at 37° C. for 15 minutes. Detection of the phosphorylated product was performed by adding 100 μl/well of Eu-N1 labeled PT66 antibody (Perkin Elmer # AD0041). Incubation at 37° C. then proceeded for one (1) hour, followed by addition of 100 μL enhancement solution (Wallac #1244-105). The plate was gently agitated and after thirty minutes, the fluorescence of the resulting solution was measured using the EnVision 2100 (or 2102) multilabel plate reader (Perkin Elmer).
Data analysis was performed using ActivityBase (IDBS, Guilford, UK). IC50 values were calculated by plotting percent inhibition versus log10 of the concentration of compound and fitting to the nonlinear regression sigmoidal dose-response (variable slope) equation in XLFit (IDBS, Guilford, UK).
Reactions were initiated with 30 ng/mL c-Met (cytoplasmic domain, Invitrogen Corporation #PV3143).

[2] = biological target: baculovirus-expressed ALK (Homo sapiens, UniProt Q9UM73); assay: ALK Kinase Assay (ELISA/TRF, PLC-γ substrate); format: biochemical; conditions: read-out: ALK Kinase Inhibition (IC50); also: 1 µM ATP (Km level)
Outline: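 An ELISA adapted from a trkA format was used: wells carried GST-fused PLC-γ substrate, and enzyme addition (30 ng/ml ALK) started a 15-minute reaction at 37° C.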

T1 sequence (P08581 956-1390 limits assumed): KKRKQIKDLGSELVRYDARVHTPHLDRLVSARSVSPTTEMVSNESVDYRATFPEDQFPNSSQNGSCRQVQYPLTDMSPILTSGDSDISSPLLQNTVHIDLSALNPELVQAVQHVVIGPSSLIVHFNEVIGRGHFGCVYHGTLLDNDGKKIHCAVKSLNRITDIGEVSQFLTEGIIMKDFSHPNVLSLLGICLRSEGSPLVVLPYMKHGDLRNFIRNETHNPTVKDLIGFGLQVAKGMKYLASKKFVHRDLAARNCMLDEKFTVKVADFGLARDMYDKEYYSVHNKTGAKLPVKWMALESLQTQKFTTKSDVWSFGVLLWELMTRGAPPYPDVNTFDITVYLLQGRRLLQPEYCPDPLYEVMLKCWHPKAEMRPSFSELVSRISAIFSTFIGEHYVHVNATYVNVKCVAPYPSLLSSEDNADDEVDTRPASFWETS
Sequence of baculovirus-expressed ALK (Q9UM73 19-1620): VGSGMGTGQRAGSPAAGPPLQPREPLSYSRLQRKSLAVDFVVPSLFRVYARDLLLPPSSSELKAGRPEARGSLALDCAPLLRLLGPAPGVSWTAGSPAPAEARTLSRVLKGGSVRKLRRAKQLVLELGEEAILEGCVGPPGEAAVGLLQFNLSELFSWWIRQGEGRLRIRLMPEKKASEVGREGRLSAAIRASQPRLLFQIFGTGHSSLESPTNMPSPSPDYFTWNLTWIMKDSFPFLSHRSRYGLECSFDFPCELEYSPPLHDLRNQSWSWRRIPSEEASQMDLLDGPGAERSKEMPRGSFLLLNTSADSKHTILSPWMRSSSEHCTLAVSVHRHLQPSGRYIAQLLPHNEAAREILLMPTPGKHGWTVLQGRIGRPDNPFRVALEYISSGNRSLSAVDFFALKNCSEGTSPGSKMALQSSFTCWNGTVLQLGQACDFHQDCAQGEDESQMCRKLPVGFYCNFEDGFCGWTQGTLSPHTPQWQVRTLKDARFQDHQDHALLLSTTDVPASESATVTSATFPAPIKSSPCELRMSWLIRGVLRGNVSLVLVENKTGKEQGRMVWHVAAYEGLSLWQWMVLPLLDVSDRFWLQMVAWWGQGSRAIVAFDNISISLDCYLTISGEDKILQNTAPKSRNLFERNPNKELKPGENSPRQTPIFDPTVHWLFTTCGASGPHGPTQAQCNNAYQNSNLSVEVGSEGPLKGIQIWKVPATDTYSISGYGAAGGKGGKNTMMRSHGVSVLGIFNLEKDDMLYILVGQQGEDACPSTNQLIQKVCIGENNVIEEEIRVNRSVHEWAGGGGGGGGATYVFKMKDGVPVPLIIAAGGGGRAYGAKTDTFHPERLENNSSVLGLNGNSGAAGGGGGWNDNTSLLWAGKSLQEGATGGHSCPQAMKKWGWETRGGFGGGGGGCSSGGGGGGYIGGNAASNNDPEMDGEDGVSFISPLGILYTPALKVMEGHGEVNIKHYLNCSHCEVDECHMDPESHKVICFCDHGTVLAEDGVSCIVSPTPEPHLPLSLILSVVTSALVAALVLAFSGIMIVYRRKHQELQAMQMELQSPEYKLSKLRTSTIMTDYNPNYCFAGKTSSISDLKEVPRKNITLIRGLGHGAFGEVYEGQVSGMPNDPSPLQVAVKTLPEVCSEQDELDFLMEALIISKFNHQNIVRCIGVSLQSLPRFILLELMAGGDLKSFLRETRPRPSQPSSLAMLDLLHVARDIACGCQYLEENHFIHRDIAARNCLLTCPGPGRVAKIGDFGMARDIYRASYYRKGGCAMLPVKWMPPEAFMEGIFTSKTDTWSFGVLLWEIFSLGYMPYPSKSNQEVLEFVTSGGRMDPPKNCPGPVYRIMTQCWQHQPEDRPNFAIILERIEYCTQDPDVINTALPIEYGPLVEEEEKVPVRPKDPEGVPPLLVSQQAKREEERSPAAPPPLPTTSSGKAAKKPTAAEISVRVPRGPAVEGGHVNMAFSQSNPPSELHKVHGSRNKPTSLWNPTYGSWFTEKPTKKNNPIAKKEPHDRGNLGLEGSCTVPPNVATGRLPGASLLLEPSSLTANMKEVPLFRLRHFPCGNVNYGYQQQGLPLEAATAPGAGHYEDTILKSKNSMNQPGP

IC50 [1] [µM] | IC50 [2] [µM] | SMILES
10 to 100 | 0.1 to 1 | O=C(NC1CCc2ccccc21)c1cnc2c(c1)N(Cc1cc(Cl)ccc1Cl)CCN2 (stereo not drawn) [Example 245, 1-(2,5-Dichlorobenzyl)-1,2,3,4-tetrahydropyrido[2,3-b]pyrazine-7-carboxylic acid indan-1-ylamide]
1 to 10 | 0.1 to 1 | Fc1ccc(F)c(CN2CCNc3ncc(-c4ccnc(N5CCCC5)c4)cc32)c1Cl [Example 183, 1-(2-Chloro-3,6-difluorobenzyl)-7-(2-pyrrolidin-1-yl-pyridin-4-yl)-1,2,3,4-tetrahydropyrido[2,3-b]pyrazine]
10 to 100 | 1 to 10 | CC(C)NC(=O)CN1CCN(C(=O)c2cnc3c(c2)N(Cc2cc(Cl)ccc2Cl)CCN3)CC1 [Example 236, 2-{4-[1-(2,5-Dichlorobenzyl)-1,2,3,4-tetrahydropyrido[2,3-b]pyrazine-7-carbonyl]piperazin-1-yl}-N-isopropylacetamide]
10 to 100 | 10 to 100 | O=C(c1cc(F)ccc1F)N1CCNc2ncc(-c3ccc(C(=O)N4CCC[C@H]4CN4CCCC4)cc3)cc21 [Example 89, (2,5-Difluorophenyl)-{7-[4-((S)-2-[(pyrrolidin-1-yl)methyl]pyrrolidine-1-carbonyl)phenyl]-3,4-dihydro-2H-pyrido[2,3-b]pyrazin-1-yl}-methanone]
> 100 | > 100 | CN1CCN(C(=O)c2ccc(-c3cnc4c(c3)C(O)CCN4)cc2)CC1 (stereo not drawn) [Example 270, [4-(5-Hydroxy-5,6,7,8-tetrahydro-[1,8]naphthyridin-3-yl)phenyl]-(4-methyl-piperazin-1-yl)methanone]
> 100 | 1 to 10 | O=C(NCc1ccc(OC(F)(F)F)cc1)c1cnc2c(c1)N(Cc1cc(Cl)ccc1Cl)CCN2 [Example 230, 1-(2,5-Dichlorobenzyl)-1,2,3,4-tetrahydropyrido[2,3-b]pyrazine-7-carboxylic acid 4-(trifluoromethoxy)benzylamide]
10 to 100 | 1 to 10 | COc1ccccc1N1CCN(C(=O)c2cnc3c(c2)N(Cc2cc(Cl)ccc2Cl)CCN3)CC1 [Example 210, [1-(2,5-Dichlorobenzyl)-1,2,3,4-tetrahydropyrido[2,3-b]pyrazin-7-yl]-[4-(2-methoxyphenyl)piperazin-1-yl]methanone]
> 100 | > 100 | CN1CCN(Cc2cc(Cl)ccc2Cl)c2cc(I)cnc21 [Example 187, 1-(2,5-Dichlorobenzyl)-7-iodo-4-methyl-1,2,3,4-tetrahydropyrido[2,3-b]pyrazine]
1 to 10 | 0.1 to 1 | CN(C)CCn1cc(-c2cnc3c(c2)N(Cc2c(F)ccc(F)c2Cl)CCN3)cn1 [Example 197, (2-{4-[1-(2-Chloro-3,6-difluorobenzyl)-1,2,3,4-tetrahydropyrido[2,3-b]pyrazin-7-yl]-pyrazol-1-yl}ethyl)dimethylamine]
1 to 10 | < 0.1 | O=C(c1ccc(-c2cnc3c(c2)N(Cc2ccccc2OC(F)(F)F)CCN3)cc1)N1CCC(N2CCCC2)CC1 [Example 305, (4-Pyrrolidin-1-yl-piperidin-1-yl)-(4-{1-[2-(trifluoromethoxy)benzyl]-1,2,3,4-tetrahydropyrido[2,3-b]pyrazin-7-yl}phenyl)methanone]
10 to 100 | 1 to 10 | O=C(c1ccccc1)N1CCN(C(=O)c2cnc3c(c2)N(Cc2cc(Cl)ccc2Cl)CCN3)CC1 [Example 219, (4-Benzoylpiperazin-1-yl)-[1-(2,5-dichlorobenzyl)-1,2,3,4-tetrahydropyrido[2,3-b]pyrazin-7-yl]methanone]
10 to 100 | 0.1 to 1 | CC(c1cc(F)ccc1F)N1C(=O)CNc2ncc(-c3ccc(C(=O)N4CCC[C@H]4CN4CCCC4)cc3)cc21 (stereo partly drawn) [Example 151]
> 100 | 1 to 10 | O=C1CNc2ncc(-c3ccc(NS(=O)(=O)CCN4CCCC4)cc3)cc2N1Cc1ccccc1 [Example 45, 2-Pyrrolidin-1-yl-ethanesulfonic acid[4-(1-benzyl-2-oxo-1,2,3,4-tetrahydropyrido[2,3-b]pyrazin-7-yl)phenyl]amide, trifluoroacetic acid salt]
> 100 | > 100 | O=C(O)c1ccc(-c2cnc3c(c2)N(Cc2cccnc2Cl)CCN3)cc1 [Example 302, 4-[1-(2-Chloropyridin-3-ylmethyl)-1,2,3,4-tetrahydropyrido[2,3-b]pyrazin-7-yl]benzoic acid]
10 to 100 | 10 to 100 | O=C(c1cnc2c(c1)N(Cc1cc(Cl)ccc1Cl)CCN2)N1CCN(C(c2ccccc2)c2ccccc2)CC1 [Example 214, (4-Benzhydrylpiperazin-1-yl)-[1-(2,5-dichlorobenzyl)-1,2,3,4-tetrahydropyrido[2,3-b]pyrazin-7-yl]methanone]
1 to 10 | 1 to 10 | O=C(c1cnc2c(c1)N(Cc1cc(Cl)ccc1Cl)CCN2)N1CCN(CCc2ccccn2)CC1 [Example 229, [1-(2,5-Dichlorobenzyl)-1,2,3,4-tetrahydropyrido[2,3-b]pyrazin-7-yl]-[4-(2-pyridin-2-yl-ethyl)piperazin-1-yl]methanone]
10 to 100 | 10 to 100 | CC(=O)c1ccc(F)cc1OC1CCNc2ncc(-c3ccc(C(=O)N4CCN(C)CC4)cc3)cc21 (stereo not drawn) [Example 277, 1-(4-Fluoro-2-{6-[4-(4-methylpiperazine-1-carbonyl)phenyl]-1,2,3,4-tetrahydro-[1,8]naphthyridin-4-yloxy}phenyl)ethanone]
10 to 100 | 1 to 10 | O=C(NC1CCN(Cc2ccccc2)CC1)c1cnc2c(c1)N(Cc1cc(Cl)ccc1Cl)CCN2 [Example 225, 1-(2,5-Dichlorobenzyl)-1,2,3,4-tetrahydropyrido[2,3-b]pyrazine-7-carboxylic acid (1-benzyl-piperidin-4-yl)amide]
> 100 | > 100 | COC(=O)C(C)(C)Nc1ncc(I)cc1[N+](=O)[O-] [Example 90, 2-(5-Iodo-3-nitro-pyridin-2-ylamino)-2-methyl-propionic acid methyl ester]
10 to 100 | > 100 | CN1CCN(C(=O)c2ccc(-c3cnc4c(c3)N(C(=O)c3ccccc3)CCN4)cc2)CC1 [Example 54, {7-[4-(4-Methylpiperazine-1-carbonyl)phenyl]-3,4-dihydro-2H-pyrido[2,3-b]pyrazin-1-yl}phenylmethanone]
10 to 100 | 1 to 10 | c1ccc(CN2CCNc3ncc(-c4cccnc4)cc32)cc1 [Example 34, 1-Benzyl-7-pyridin-3-yl-1,2,3,4-tetrahydropyrido[2,3-b]pyrazine]
> 100 | 1 to 10 | COc1ccc(N2CCN(C(=O)c3cnc4c(c3)N(Cc3cc(Cl)ccc3Cl)CCN4)CC2)cc1 [Example 247, [1-(2,5-Dichlorobenzyl)-1,2,3,4-tetrahydropyrido[2,3-b]pyrazin-7-yl]-[4-(4-methoxyphenyl)piperazin-1-yl]methanone]
> 100 | 10 to 100 | O=C(c1cnc2c(c1)N(Cc1cc(Cl)ccc1Cl)CCN2)N1CCN(c2ccccc2)CC1 [Example 206, [1-(2,5-Dichlorobenzyl)-1,2,3,4-tetrahydropyrido[2,3-b]pyrazin-7-yl]-(4-phenylpiperazin-1-yl)-methanone]
1 to 10 | 0.1 to 1 | CN1CCN(C(=O)c2ccc(-c3cnc4c(c3)C(Oc3cc(Cl)ccc3Cl)CCN4)cc2)CC1 (stereo not drawn) [Example 272, {4-[5-(2,5-Dichlorophenoxy)-5,6,7,8-tetrahydro-[1,8]naphthyridin-3-yl]phenyl}-(4-methyl-piperazin-1-yl)methanone]
> 100 | > 100 | O=C(c1cc(F)ccc1F)N1CCNc2ncc(I)cc21 [Example 87, (2,5-Difluorophenyl)-(7-iodo-3,4-dihydro-2H-pyrido[2,3-b]pyrazin-1-yl)methanone]
> 100 | 1 to 10 | CN1CCN(c2ccc(-c3cnc4c(c3)N(Cc3cc(Cl)ccc3Cl)CCN4C)cn2)CC1 [Example 188, 1-(2,5-Dichlorobenzyl)-4-methyl-7-[6-(4-methylpiperazin-1-yl)pyridin-3-yl]-1,2,3,4-tetrahydropyrido[2,3-b]pyrazine]
10 to 100 | 0.1 to 1 | CC(c1cc(F)c(F)cc1F)N1CCNc2ncc(-c3ccc(C(=O)N4CCC[C@H]4CN4CCCC4)cc3)cc21 (stereo partly drawn) [Example 148, S-{2-[(pyrrolidin-1-yl)methyl]pyrrolidin-1-yl}-(4-{1-[1-(2,4,5-trifluorophenyl)ethyl]-1,2,3,4-tetrahydropyrido[2,3-b]pyrazin-7-yl}phenyl)methanone, trifluoroacetic acid salt]
